# Reference: article PMC8360061, “Search for the Active Ingredients from a 2‐Aminothiazole DMSO Stock Solution with Antimalarial Activity” (Chemmedchem, 2021)
# “Also recorded” adds a separate entry of the source.
# Assay: Decomposition study of stock solutions (HRMS, NMR)
# Assay type: physicochemical
# Method: Firstly, we performed a temperature‐dependent decomposition study of compound 1 at 10 mM concentration in DMSO at room temperature (RT), +4 °C and −20 °C (SI, Section 2.3). After seven days, 64 % of the sample stored at RT had decomposed (SI, Table S1). Besides visual inspection of the colour changes of the test sample (see Table 2), the decomposition was monitored by HRMS and NMR spectroscopy. […] Furthermore, all three samples were tested for their inhibitory activity against PfIspE after the incubation period. […] This fact correlated with the degree of chemical transformation of compound 1 (Table S1). In the IspE assay, the activity of the target enzyme is coupled to the oxidation of NADH (which can be followed spectrophotometrically at 340 nm) via a cascade of the auxiliary enzymes pyruvate kinase and lactate dehydrogenase (PK/LDH).[10] Therefore, we next confirmed, whether the effects observed in the IspE assay are due to inhibition of the target enzyme or of the auxiliary enzymes. Three samples of compound 1 were tested in PK/LDH assay (Table 2).
# Secondly, we analysed if spontaneous chemical transformation of compound 1 may depend on the solvent used for the preparation of its stock solutions. We incubated 10 mM stock preparations of compound 1 in DMSO, acetonitrile (ACN) and methanol (MeOH) at RT. Aliquots were taken during 16 days of incubation and tested against the enzyme PfIspE (Table 3). […] For further decomposition incubation of compound 1, only DMSO was used as solvent.
# 2.3 Temperature-Dependent Study
# Compound 1 was dissolved in DMSO to afford 10 mM stock solution, in the scale of 3.65 mg in 1 mL. Three aliquots were prepared and one each was stored inside a light -protecting box at different temperatures: room temperature (RT), +4 °C and –20 °C. Samples were only taken to RT for the minimum time required for sampling. Samples were further d iluted with acetonitrile to 10 µM (1:1000) for HRMS analysis. For calibration, a fresh stock solution of the compound 1 was prepared shortly before the analysis. The concentration range used for the calibration was from 10 µM to 20 nM, including 10 samples with 1:1 dilutions starting from the highest concentration (Appendix I). In all of the calibration points and samples, diphenhydramine ( m/z: 256.16907 [M+H]+) was included as an internal standard at the concentration of 500 nM. The results were analysed using Thermo Xcalibur Quan Browser. Similarly, three NMR samples of compound 1 were prepared in DMSO-d6 and each stored at different temperatures; RT, +4 °C and –20 °C, (Figure S8).
# Table S1. Summary of the decomposition of compound 1 at different temperatures with the corresponding enzymatic activities measured after three months.
# The Percentage of Compound 1 Left After Degradation after 3 months of decomposition[b] Temperature Day 7 1 month 2 months PfIspE IC50 EcIspE IC50 PK/LDH IC50 […]
# [a] [b] Errors given as formal standard error. n.d.: not determined, PK/LDH: pyruvate kinase and lactate dehydrogenase, Pf: Plasmodium falciparum, Ec: Escherichia coli.
# Figure S7. The HRMS recorded for the samples submitted to the enzyme assay after 3 months of decomposition with the corresponding colour differences. […]
# 2.4 Solvent-Dependent Study
# As in the Section 2.3, stock solutions of compound 1 were prepared in DMSO, ACN and MeOH and stored at RT for 16 days in a box protected from light . Samples were collected during this time and the enzymatic activity was analysed for them as in main text, Table […]
# compound 1 for ACN or MeOH was detectible (Figures S11–12). Similarly, the old samples of compound 1 used for enzyme and cell assays were analysed with HRMS (Figure S13). Additionally, NMR sample in MeOH was prepared and measured over time while stored at RT. As a follow-up experiment, the stability of compound 1 was determined for its 10 mM stock solution in Tris-HCl (pH 7.6) with and without 5% DMSO and Cyrene™ with HRMS (Figure S16–18). […]
structure (smiles),measurement,setting,value
CCn1c(C)cc(-c2csc(Nc3ccccc3C(F)(F)F)n2)c1C [Compound 1],Degradation after 2 months,"10 mM in DMSO, +4 °C",79%
same,Percentage of Compound 1 Left After Degradation,"10 mM in DMSO, +4 °C, 1 month",48%
same,Percentage of Compound 1 Left After Degradation,"10 mM in DMSO, +4 °C, 2 months",21%
same,Percentage of Compound 1 Left After Degradation,"10 mM in DMSO, +4 °C, Day 7",96%
same,Degradation after 2 months,"10 mM in DMSO, RT",100%
same,decomposition after two weeks (in words),"10 mM in DMSO, RT",fully decomposed
same,share of sample decomposed after seven days,"10 mM in DMSO, RT",64%
same,Percentage of Compound 1 Left After Degradation,"10 mM in DMSO, RT, 1 month",1%
same,Percentage of Compound 1 Left After Degradation,"10 mM in DMSO, RT, 2 months",0%
same,Percentage of Compound 1 Left After Degradation,"10 mM in DMSO, RT, Day 7",36%
same,Degradation after 2 months,"10 mM in DMSO, −20 °C",18%
same,Percentage of Compound 1 Left After Degradation,"10 mM in DMSO, −20 °C, 1 month",91%
same,Percentage of Compound 1 Left After Degradation,"10 mM in DMSO, −20 °C, 2 months",82%
same,Percentage of Compound 1 Left After Degradation,"10 mM in DMSO, −20 °C, Day 7",96%
same,decomposition at −20 °C (in words),"10 mM in DMSO, −20 °C, up to two months",decomposition hardly occurs; also recorded: only minimal decomposition
same,"decomposition in Cyrene (HRMS, in words)","10 mM stock in Cyrene, RT, after one day",clear decomposition
same,"decomposition in ACN (HRMS, in words)",stock solution in ACN at RT for 16 days,no decomposition
same,"decomposition in MeOH (HRMS, in words)",stock solution in MeOH at RT for 16 days,no decomposition
